The values that follow come from patent publication US20250325524A1, “COMPOSITIONS AND METHODS FOR TREATING RENAL INJURY” (CASE WESTERN RESERVE UNIVERSITY, priority 2018, published 2025).

Data set [1] has as its system mice with ischemic AKI. As to the kind of experiment: renal ischemia-reperfusion injury model: renal function (serum creatinine, NGAL, KIM-1). The class given is in vivo. Particulars: IRI-30 min, 3 doses of 5 mg/kg, 24 hours reperfusion. The protocol: (§1) Mice were anesthetized with isoflurane using a vaporizer and placed on a heating pad to maintain their body temperature at 37° C. Both renal arteries were identified through dorsal incisions and clamped for 20, 30, 35, or 37 minutes. Reperfusion was confirmed visually upon release of the clamps. Surgical wounds were closed, and mice were administered 1 mL of saline i.p. The mice were kept in a warm incubator until they regained consciousness and were allowed to recover with ad libitum access to food and water. […] Serum and kidney tissue were collected 24 hours after renal IRI.
Renal function was assessed by determining the serum levels of creatinine (KB02-H1; Arbor Assays), Lipocalin-2 (NGAL; MLCN20; R&D Systems), and kidney injury molecule-1 (KIM-1; MKM100; R&D Systems) after reperfusion for 24 h.

For a further data set, the target named is T1, recombinant 15-PGDH (Homo sapiens, UniProt P15428).
T1 sequence (P15428 1-266): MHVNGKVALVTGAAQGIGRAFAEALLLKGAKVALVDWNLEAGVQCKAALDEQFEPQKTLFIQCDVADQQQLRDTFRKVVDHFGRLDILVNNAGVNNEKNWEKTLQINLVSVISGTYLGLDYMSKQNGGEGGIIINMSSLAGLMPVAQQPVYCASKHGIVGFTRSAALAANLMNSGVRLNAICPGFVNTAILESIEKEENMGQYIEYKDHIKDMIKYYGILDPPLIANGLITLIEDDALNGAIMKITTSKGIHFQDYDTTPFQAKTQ
In words: inhibition of recombinant 15-PGDH. The class given is biochemical.

The test system of data set [2] is PGE2 production by cell lines. In words: PGE2 production by cell lines. The class given is cell-based.
The nature of data set [3]: chemical stability in aqueous solutions. The class given is physicochemical. As to conditions: over broad pH range.
Data set [4] can be described thus: stability on incubation with mouse liver extracts. The class given is in vitro ADME.
The nature of data set [5]: stability on incubation with rat liver extracts. The class given is in vitro ADME.
A short description of data set [6]: stability on incubation with human liver extracts. The class given is in vitro ADME.
A further data set deals with mice. In words: toxicity after IP injection into mice. As to conditions: IP into mice at 50 mg/kg body weight.
Data set [7] has as its system mice with ischemic AKI. As to the kind of experiment: renal IRI model: necrotic and apoptotic cell death in the outer medulla. The class given is in vivo. The procedure:
as §1
To evaluate necrosis, 5-μm-thick paraffin sections were stained with H&E. Tubular injury was scored semi quantitatively according to a scoring system by a pathologist who examined at least 20 separate fields (×400) in the outer medulla, which is the zone most sensitive to ischemic injury. The scoring system was as follows: 0, no damage; 1, patchy isolated unicellular necrosis; 2, tubular necrosis <25%; 3, tubular necrosis 25-50%; and 4, tubular necrosis >50%. At least 20 consecutive high-power fields (magnification, ×400) per section were scored by two operators blind to the details of the experiment. To analyze the frequency of apoptosis, 5-μm-thick paraffin sections were subjected to terminal deoxynucleotidyl transferase-mediated dUTP nick-end labeling (TUNEL) assay (APT110; Millipore) according to the manufacturer's protocol. TUNEL-positive cells were counted in at least five separate fields (×640 magnification) in the outer medulla, and the apoptosis index (%, number of apoptosis cells/total number of cells) was calculated using GENASIS software.

In data set [8] the test system is HMGB1 and proinflammatory cytokines. In words: renal IRI model: HMGB1 and cytokine levels. The class given is in vivo. As to conditions: mice, 3 doses 5 mg/kg. The procedure: as §1
Inflammatory cytokine mRNA and protein levels were measured by real-time PCR and ELISA, respectively. Kidney tissue and serum were harvested after reperfusion for 24 h. Total RNA was extracted from frozen kidney tissue using TRIzol reagent (15596018; Invitrogen), according to the manufacturer's protocol. RNA was converted to cDNA using oligo-dT primers. IL-17, TNF-α, and […] levels were determined by real-time PCR with SYBR green PCR Master Mix and the primers listed in Table 1. For ELISA, frozen kidney tissues were homogenized in phosphate buffer. Serum IL-17 (M1700; R&D Systems), TNF-α (MTAOOB; R&D Systems), and IL-10β (MLBOOC; R&D Systems) were measured using commercial ELISA kits according to the manufacturer's instructions.

Data set [9] deals with renal arterioles in the outer medulla. In words: renal vasodilatation in the outer medulla (α-SMA-positive arteriole area). The class given is in vivo, mice. Particulars: IRI mice; α-SMA staining. The procedure: as §1
To quantify vasodilation, the inner arteriole area of the outer medulla was determined using α-SMA-stained sections. After counterstaining with Mayer's hematoxylin, the inner area of α-SMA-positive vessels in the outer medulla (×25) was measured using ImageJ. The results are expressed as average areas of renal arteries outer medulla.

The test system of data set [10] is PGE2 receptors (EP1, EP2, EP3 and EP4) and adenosine receptor (A2A). As to the kind of experiment: renal IRI model: PGE2 receptors (EP1-EP4) and adenosine A2A receptor levels. The class given is in vivo, mice. Particulars: kidney tissue, IRI mice. The protocol:
as §1
PGE2 receptors (EP1, EP2, EP3 and EP4) and adenosine receptor (A2A) mRNA levels were determined by real-time PCR with SYBR green PCR Master Mix and the primers listed in Table 1. Their protein levels were determined by western blotting assay and immunofluorescence analysis.

Data set [11] relates to mice with ischemic AKI. In words: survival and body weight over 7 days after renal IRI. The class given is in vivo. Particulars: bilateral IRI 30 minutes, 5 mg/kg i.p. before and twice daily over 7 days, POD7. The procedure:
(A) Experimental setup for toxicity. Ischemic AKI induced by bilaterally clamping the renal arteries for 30 minutes, followed by reperfusion. […] (n=10 per group). (B, C) Survival curves and body weight over 7 days. Kaplan-Meier analysis of survival stratified by AKI stage. Data are means±SEM. *P<0.05 vs. corresponding BI30_vehicle.

`CCCCC[C@H](O)/C=C/[C@H]1[C@H](O)CC(=O)[C@@H]1CCCCCCC(=O)O` [PGE1, reference compound]: the “renal protection from IRI (serum NGAL, creatinine, KIM-1)” value (“renal protection from IRI” for short) in the data set with mice with ischemic AKI [1] is recorded as “less effective for renal protection”.

As to `CCCCC[C@H](O)/C=C/[C@H]1[C@H](O)CC(=O)[C@@H]1C/C=C\CCCC(=O)O` [PGE2, reference compound], the “renal protection from IRI” value in the data set with mice with ischemic AKI [1] is on record as “less effective for renal protection”.

For the molecule `CCCC[S+]([O-])c1sc2nc(-c3nccs3)cc(-c3cnc(C)n3C)c2c1N` (stereo not drawn) [formula (VII)], the “concentration at which recombinant 15-PGDH is inhibited” value at recombinant 15-PGDH came to 3 nM. Further, in [2], the “concentration at which PGE2 production by cell lines is increased” value was found to be 20 nM. The “chemical stability in aqueous solutions” value in data set [3] was “chemically stable”. The “chemical stability when incubated with mouse liver extracts” value in [4] is “chemically stable”. In [5], the “chemical stability when incubated with rat liver extracts” value is recorded as “chemically stable”. In data set [6], the “chemical stability when incubated with human liver extracts” value was “chemically stable”. In addition, in the data set with mice, the “immediate toxicity over 24 hours” value was “no immediate toxicity”.

`COc1ccc2c(c1)c(CC(=O)O)c(C)n2C(=O)c1ccc(Cl)cc1` [indomethacin, reference compound]: in the data set with mice with ischemic AKI [1], the “renal protection from IRI” value is “significantly aggravated IRI”. The “tissue congestion in the outer medulla (gross pathology)” value in the data set on mice with ischemic AKI [7] (3 doses 5 mg/kg i.p., POD1, vs IRI-vehicle) is “worsened”. For the same molecule, the “renal injury (histopathology, tubular injury)” value in the data set with mice with ischemic AKI [7] (3 doses 5 mg/kg, POD1) is reported as “further exacerbated renal injury”. Moreover, the “induction of inflammatory cytokines” value in data set [8] is “increased induction of inflammatory cytokines”. For the same molecule, in data set [8] (kidney tissue, western blot), the “increase of HMGB1 compared to the IRI-vehicle group” value turned out to be 50%. In data set [9], the “renal arteriole area in the outer medulla” value is listed as “significantly decreased”. For the same molecule, in data set [10], the “EP4 mRNA” value is given as “reduced” and the “increase of levels of mRNA for EP1” value was 40%. The “reduced survival vs vehicle control” value with mice with ischemic AKI [11] is recorded as 25%.
